Laboratory results published in patent publication US7348425B2, “Inhibitors of HCV replication” (Bristol-Myers Squibb Company, priority 2004, dated 2008).

Tested on: HCV replicon
Assay: HCV replicon FRET assay
Type: cell-based
Conditions: Hepatitis C virus; FRET assay; read-out: EC50
Summary of the method: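 Replicon cells (± Renilla luciferase reporter) incubated with titrated compound at 37 °C; NS3 protease activity read by FRET peptide cleavage (20 uM EDANS/DABCYL substrate, 340/490 nm kinetic) or luciferase.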

| SMILES | EC50 [nM] |
| --- | --- |
| COC(=O)c1ccc2c(C3CCCCC3)c3n(c2c1)CC(O)Cc1ccccc1-3 (centres unmarked) | 10 to 1000 |
| COc1ccc2c(c1)C=C(C(=O)N1CC[C@@H](O)C1)Cn1c-2c(C2CCCCC2)c2ccc(C(=O)NS(=O)(=O)N(C)C)cc21 | 50 to 1000 |
| COc1cc2c(cn1)-c1c(C3CCCCC3)c3ccc(C(=O)NS(=O)(=O)N(C)C)cc3n1CC(C(=O)N1C[C@@H](C)O[C@@H](C)C1)=C2 | > 1000 |
| COc1ccc2c(c1)C=C(C(=O)N1CCC[C@@H](O)C1)Cn1c-2c(C2CCCCC2)c2ccc(C(=O)NS(=O)(=O)N(C)C)cc21 | 50 to 1000 |
| COC(=O)c1ccc2c(C3CCCCC3)c3n(c2c1)CC(C(=O)O)=Cc1cc(OCc2ccccc2)ccc1-3 | 1000 to 10000 |
| C[C@@H]1CN(C(=O)C2=Cc3ccccc3-c3c(C4CCCCC4)c4ccc(C(=O)NC5(C(=O)Nc6ccc(-n7cncn7)cc6)CCCC5)cc4n3C2)C[C@H](C)O1 | 50 to 1000 |
| O=C1Cn2c(c(C3CCCCC3)c3ccc(C(=O)NC4(C(=O)Nc5ccc(-c6cscn6)cc5)CCCC4)cc32)-c2ccccc2N1 | 10 to 1000 |
| CN(C)S(=O)(=O)NC(=O)c1ccc2c(C3CCCCC3)c3n(c2c1)CC(C(=O)N1CCOCC1)Cc1cccnc1-3 (centres unmarked) | 10 to 1000 |
| COC(=O)/C=C/c1ccc(NC(=O)C2(NC(=O)c3ccc4c(C5CCCCC5)c5c6ccccc6ncn5c4c3)CCCC2)cc1 | 1000 to 10000 |
| CN(C)S(=O)(=O)NC(=O)c1ccc2c(C3CCCCC3)c3n(c2c1)CCCNc1ccccc1-3 | 50 to 1000 |
| O=C(NS(=O)(=O)C1CC1)c1ccc2c(C3CCCCC3)c3n(c2c1)CCNc1ccccc1-3 | 10 to 1000 |
| COC(=O)c1ccc2c(C3CCCCC3)c3n(c2c1)CC(C(=O)O)Cc1ccccc1-3 (centres unmarked) | > 10000 |
| O=C(O)c1ccc2c(C3CCCCC3)c3n(c2c1)C[C@@H](O)[C@@H](O)c1ccccc1-3 | 1000 to 10000 |
| CN(C)S(=O)(=O)NC(=O)c1ccc2c(C3CCCCC3)c3n(c2c1)CCNc1ccccc1-3 | 10 to 1000 |
| COc1ccc2c(c1)C=C(C(=O)N1CC(C)NC(C)C1)Cn1c-2c(C2CCCCC2)c2ccc(C(=O)NS(=O)(=O)N(C)C)cc21 (centres unmarked) | 50 to 1000 |
| COC(=O)c1ccc2c(C3CCCCC3)c3n(c2c1)C(O)c1cc(OC)ccc1-3 (centres unmarked) | > 100 |

| SMILES | EC50 [nM] |
| --- | --- |
| CN(C)S(=O)(=O)NC(=O)c1ccc2c(C3CCCCC3)c3n(c2c1)CCCN(C(=O)OC(C)(C)C)c1ccccc1-3 | 50 to 1000 |
| COC(=O)c1ccc2c(C3CCCCC3)c3n(c2c1)C/C(=N/O)Cc1ccccc1-3 | 10 to 1000 |
| O=C(O)/C=C/c1ccc(NC(=O)C2(NC(=O)c3ccc4c(C5CCCCC5)c5n(c4c3)CC(C(=O)N3CCCC(O)C3)Cc3ccccc3-5)CCCC2)cc1 (centres unmarked) | 10 to 1000 |
| O=C(O)c1ccc2c(C3CCCCC3)c3n(c2c1)CC(N1CCOCC1)Cc1ccccc1-3 (centres unmarked) | 10 to 1000 |
| CCOC(=O)/C=C/c1ccc(NC(=O)C2(NC(=O)c3ccc4c(C5CCCCC5)c5n(c4c3)CCCc3cc(O)ccc3-5)CCCC2)cc1 | 10 to 1000 |
| O=C(O)c1ccc2c(C3CCCCC3)c3n(c2c1)C=C(C(=O)N1CCOCC1)Cc1ccncc1-3 | > 10000 |
| CN(C)CCN1C(=O)Cn2c(c(C3CCCCC3)c3ccc(C(=O)O)cc32)-c2ccccc21 | 10 to 1000 |
| O=C(O)c1ccc2c(C3CCCCC3)c3n(c2c1)CC(CO)Cc1ccccc1-3 (centres unmarked) | 1000 to 10000 |
| CC(C)(C)OC(=O)N1CC(O)Cn2c(c(C3CCCCC3)c3ccc(C(=O)O)cc32)-c2ccccc21 (centres unmarked) | 1000 to 10000 |
| CC1=C(C(=O)N2CCOCC2)Cn2c(c(C3CCCCC3)c3ccc(C(=O)O)cc32)-c2ccccc21 | 10 to 1000 |
| O=C(NS(=O)(=O)c1ccccc1)c1ccc2c(C3CCCCC3)c3n(c2c1)CC=Cc1ncccc1-3 | > 10000 |
| CCOC(=O)/C=C/c1ccc(NC(=O)C2(NC(=O)c3ccc4c(C5CCCCC5)c5n(c4c3)CC(=O)Nc3ccccc3-5)CCNCC2)cc1 | 10 to 1000 |
| O=C(O)c1ccc2c(C3CCCCC3)c3n(c2c1)CC(O)CNc1ccccc1-3 (centres unmarked) | 1000 to 10000 |
| CCN(CC)C1CCN(C(=O)C2=Cc3ccccc3-c3c(C4CCCCC4)c4ccc(C(=O)NS(=O)(=O)N(C)C)cc4n3C2)C1 (centres unmarked) | 10 to 1000 |
| COC(=O)C1=Cc2ccccc2-c2c(C3CCCCC3)c3ccc(C(=O)NS(=O)(=O)N(C)C)cc3n2C1 | 10 to 1000 |

Molecular target: T1, HCV NS5B RdRp genotype 1b (Hepatitis C virus genotype 1b, UniProt Q9WMX2)
T1 construct: The protein was expressed with an 18 amino acid C-terminal truncation to enhance the solubility; made in house; host or cells: E. coli BL21 (DE3), pET21a
Assay: Modified HCV NS5B RdRp enzyme assay (with preincubation)
Type: biochemical
Conditions: modified method (with preincubation)
Summary of the method: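 Seven-point IC50s were derived from SPA-based ³H-UTP incorporation after 4 h at 30 °C (Hepes pH 7.5, 2% DMSO). Compound was first mixed with 14 nM Δ18 NS5B genotype 1b enzyme. Then 0.2 nM polyA, 0.29 μM UTP and bead-bound oligo-dT12 (20 nM) were added.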

T1 sequence (Q9WMX2 2420-2992): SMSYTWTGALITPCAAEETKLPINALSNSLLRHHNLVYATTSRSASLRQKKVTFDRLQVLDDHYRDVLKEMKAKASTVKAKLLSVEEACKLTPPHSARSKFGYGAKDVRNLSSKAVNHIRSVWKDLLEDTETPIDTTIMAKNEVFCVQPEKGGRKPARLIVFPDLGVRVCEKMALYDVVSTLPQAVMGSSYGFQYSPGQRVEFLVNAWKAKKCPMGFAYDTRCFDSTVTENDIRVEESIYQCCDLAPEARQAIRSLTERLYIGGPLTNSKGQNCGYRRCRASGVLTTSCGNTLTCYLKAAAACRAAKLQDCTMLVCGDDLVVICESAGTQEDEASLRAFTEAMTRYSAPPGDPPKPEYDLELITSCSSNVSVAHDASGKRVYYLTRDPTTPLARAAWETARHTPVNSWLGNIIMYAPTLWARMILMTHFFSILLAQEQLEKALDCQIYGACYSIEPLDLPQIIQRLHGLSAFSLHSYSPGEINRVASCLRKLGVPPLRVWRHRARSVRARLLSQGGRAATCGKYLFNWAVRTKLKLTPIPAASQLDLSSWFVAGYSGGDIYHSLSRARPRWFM

| SMILES | IC50 [nM] |
| --- | --- |
| COC(=O)c1ccc2c(C3CCCCC3)c3n(c2c1)CC(O)Cc1ccccc1-3 (centres unmarked) | > 1000 |
| COC(=O)c1ccc2c(C3CCCCC3)c3n(c2c1)CC(C(=O)O)=Cc1cc(OCc2ccccc2)ccc1-3 | > 1000 |
| O=C1Cn2c(c(C3CCCCC3)c3ccc(C(=O)NC4(C(=O)Nc5ccc(-c6cscn6)cc5)CCCC4)cc32)-c2ccccc2N1 | 20 to 1000 |
| CN(C)S(=O)(=O)NC(=O)c1ccc2c(C3CCCCC3)c3n(c2c1)CC(C(=O)N1CCOCC1)Cc1cccnc1-3 (centres unmarked) | 20 to 1000 |
| COC(=O)/C=C/c1ccc(NC(=O)C2(NC(=O)c3ccc4c(C5CCCCC5)c5c6ccccc6ncn5c4c3)CCCC2)cc1 | > 1000 |
| O=C(NS(=O)(=O)C1CC1)c1ccc2c(C3CCCCC3)c3n(c2c1)CCNc1ccccc1-3 | 20 to 1000 |
| COC(=O)c1ccc2c(C3CCCCC3)c3n(c2c1)CC(C(=O)O)Cc1ccccc1-3 (centres unmarked) | > 1000 |
| O=C(O)c1ccc2c(C3CCCCC3)c3n(c2c1)C[C@@H](O)[C@@H](O)c1ccccc1-3 | 20 to 1000 |
| CN(C)S(=O)(=O)NC(=O)c1ccc2c(C3CCCCC3)c3n(c2c1)CCNc1ccccc1-3 | 20 to 1000 |
| COC(=O)c1ccc2c(C3CCCCC3)c3n(c2c1)C/C(=N/O)Cc1ccccc1-3 | > 1000 |
| O=C(O)/C=C/c1ccc(NC(=O)C2(NC(=O)c3ccc4c(C5CCCCC5)c5n(c4c3)CC(C(=O)N3CCCC(O)C3)Cc3ccccc3-5)CCCC2)cc1 (centres unmarked) | 20 to 1000 |
| O=C(O)c1ccc2c(C3CCCCC3)c3n(c2c1)CC(N1CCOCC1)Cc1ccccc1-3 (centres unmarked) | 20 to 1000 |
| CCOC(=O)/C=C/c1ccc(NC(=O)C2(NC(=O)c3ccc4c(C5CCCCC5)c5n(c4c3)CCCc3cc(O)ccc3-5)CCCC2)cc1 | > 1000 |
| O=C(O)c1ccc2c(C3CCCCC3)c3n(c2c1)C=C(C(=O)N1CCOCC1)Cc1ccncc1-3 | > 1000 |
| CN(C)CCN1C(=O)Cn2c(c(C3CCCCC3)c3ccc(C(=O)O)cc32)-c2ccccc21 | 20 to 1000 |
| O=C(O)c1ccc2c(C3CCCCC3)c3n(c2c1)CC(CO)Cc1ccccc1-3 (centres unmarked) | 20 to 1000 |
| CC(C)(C)OC(=O)N1CC(O)Cn2c(c(C3CCCCC3)c3ccc(C(=O)O)cc32)-c2ccccc21 (centres unmarked) | 20 to 1000 |
| CC1=C(C(=O)N2CCOCC2)Cn2c(c(C3CCCCC3)c3ccc(C(=O)O)cc32)-c2ccccc21 | 20 to 1000 |
| O=C(NS(=O)(=O)c1ccccc1)c1ccc2c(C3CCCCC3)c3n(c2c1)CC=Cc1ncccc1-3 | 20 to 1000 |
| CCOC(=O)/C=C/c1ccc(NC(=O)C2(NC(=O)c3ccc4c(C5CCCCC5)c5n(c4c3)CC(=O)Nc3ccccc3-5)CCNCC2)cc1 | 20 to 1000 |
| O=C(O)c1ccc2c(C3CCCCC3)c3n(c2c1)CC(O)CNc1ccccc1-3 (centres unmarked) | 20 to 1000 |
| CCN(CC)C1CCN(C(=O)C2=Cc3ccccc3-c3c(C4CCCCC4)c4ccc(C(=O)NS(=O)(=O)N(C)C)cc4n3C2)C1 (centres unmarked) | 20 to 1000 |
| COC(=O)C1=Cc2ccccc2-c2c(C3CCCCC3)c3ccc(C(=O)NS(=O)(=O)N(C)C)cc3n2C1 | 20 to 1000 |

Same assay, conditions: preincubation protocol

| SMILES | IC50 [nM] |
| --- | --- |
| COc1ccc2c(c1)C=C(C(=O)N1CC[C@@H](O)C1)Cn1c-2c(C2CCCCC2)c2ccc(C(=O)NS(=O)(=O)N(C)C)cc21 | 10 to 1000 |
| COc1cc2c(cn1)-c1c(C3CCCCC3)c3ccc(C(=O)NS(=O)(=O)N(C)C)cc3n1CC(C(=O)N1C[C@@H](C)O[C@@H](C)C1)=C2 | 1000 to 10000 |
| COc1ccc2c(c1)C=C(C(=O)N1CCC[C@@H](O)C1)Cn1c-2c(C2CCCCC2)c2ccc(C(=O)NS(=O)(=O)N(C)C)cc21 | 10 to 1000 |
| C[C@@H]1CN(C(=O)C2=Cc3ccccc3-c3c(C4CCCCC4)c4ccc(C(=O)NC5(C(=O)Nc6ccc(-n7cncn7)cc6)CCCC5)cc4n3C2)C[C@H](C)O1 | 10 to 1000 |
| CN(C)S(=O)(=O)NC(=O)c1ccc2c(C3CCCCC3)c3n(c2c1)CCCNc1ccccc1-3 | 10 to 1000 |
| COc1ccc2c(c1)C=C(C(=O)N1CC(C)NC(C)C1)Cn1c-2c(C2CCCCC2)c2ccc(C(=O)NS(=O)(=O)N(C)C)cc21 (centres unmarked) | 10 to 1000 |
| COC(=O)c1ccc2c(C3CCCCC3)c3n(c2c1)C(O)c1cc(OC)ccc1-3 (centres unmarked) | > 1000 |
| CN(C)S(=O)(=O)NC(=O)c1ccc2c(C3CCCCC3)c3n(c2c1)CCCN(C(=O)OC(C)(C)C)c1ccccc1-3 | 10 to 1000 |
